# Assays:
# Test in all cases: viability relative to DMSO control (fraction); higher = less drug effect (more viable cells)
# Settings in all cases: 48 h
# [1] = compound: C[C@H]1C[C@@H](n2c(Nc3ccc(OC(F)(F)F)cc3)nc3cc(CCC(=O)O)ccc32)CC(C)(C)C1
# Method in brief: (§1)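 Viability was measured as CellTiter-Glo luminescence relative to the median of 16 inner DMSO wells. Primary mononuclear tumour cells, fresh or cryopreserved, were Ficoll-isolated from blood or bone marrow or taken from processed lymph node. They were seeded at 4 × 10^4 cells per well into 384-well plates holding pre-plated compounds at five concentrations, one well each, and kept in RPMI-1640 with penicillin/streptomycin, L-glutamine and human serum at 37 °C and 5% CO2 for 48 h.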
# [2] = compound: CC[C@]1(O)C[C@@H]2CN(CCc3c([nH]c4ccccc34)[C@@](C(=O)OC)(c3cc4c(cc3OC)N(C)[C@H]3[C@@](O)(C(N)=O)[C@H](O)[C@]5(CC)C=CCN6CC[C@]43[C@@H]65)C2)C1 [Vindesine]
# Method in brief: as §1
# [3] = compound: COc1cc([C@@H]2c3cc4c(cc3[C@@H](O[C@@H]3O[C@@H]5CO[C@@H](C)O[C@H]5[C@H](O)[C@H]3O)[C@H]3COC(=O)[C@H]23)OCO4)cc(OC)c1O [Etoposide]
# Method in brief: as §1
# [4] = compound: CC(=O)c1c(C)c2cnc(Nc3ccc(N4CCNCC4)cn3)nc2n(C2CCCC2)c1=O [Palbociclib]
# Method in brief: as §1
# [5] = compound: O=C(/C=C\n1cnc(-c2cc(C(F)(F)F)cc(C(F)(F)F)c2)n1)NNc1cnccn1 [Selinexor]
# Method in brief: as §1
# [6] = compound: CC1(C)CCC(c2ccc(Cl)cc2)=C(CN2CCN(c3ccc(C(=O)NS(=O)(=O)c4ccc(N[C@H](CCN5CCOCC5)CSc5ccccc5)c(S(=O)(=O)C(F)(F)F)c4)cc3)CC2)C1 [Navitoclax]
# Method in brief: as §1
# [7] = compound: CC[C@H](CO)Nc1nc(NCc2ccccc2)c2ncn(C(C)C)c2n1 [Roscovitine]
# Method in brief: as §1
# [8] = compound: c1cn2cc(-c3ccc4cn[nH]c4c3)nc(Nc3ccc(N4CCOCC4)cc3)c2n1 [Entospletinib]
# Method in brief: as §1
# [9] = compound: O=C(Nc1ccc2[nH]nc(-c3ccncc3)c2c1)[C@@H]1CCN(CC(=O)N2CCN(c3ccc(-c4ncccn4)cc3)CC2)C1
# Method in brief: as §1
# [10] = compound: CO[C@H]1C[C@@H]2CC[C@@H](C)[C@@](O)(O2)C(=O)C(=O)N2CCCC[C@H]2C(=O)O[C@H]([C@H](C)C[C@@H]2CC[C@@H](OCCO)[C@H](OC)C2)CC(=O)[C@H](C)/C=C(\C)[C@@H](O)[C@@H](OC)C(=O)[C@H](C)C[C@H](C)/C=C/C=C/C=C/1C [Everolimus]
# Method in brief: as §1
# [11] = compound: CCc1ccc(/C=C2/SC(=S)NC2=O)cc1
# Method in brief: as §1
# [12] = compound: C[C@H](Nc1ncnc2nc[nH]c12)c1cc2cccc(Cl)c2c(=O)n1-c1ccccc1 [Duvelisib]
# Method in brief: as §1
# [13] = compound: C[C@H](NC(=O)CCC(F)(F)F)C(=O)N[C@@H]1C(=O)N(CCO)c2ncccc2-c2ccccc21
# Method in brief: as §1
test system,measurement,setting,value
primary MCL patient cells (S063),viability,[1]; 0.024 µM,0.864
same,viability,[1]; 0.12 µM,1.16
same,viability,[1]; 0.6 µM,1.01
same,viability,[1]; 3 µM,0.902
same,viability,[1]; 15 µM,0.94
same,viability,[2]; 0.016 µM,0.731
same,viability,[2]; 0.08 µM,0.182
same,viability,[2]; 0.4 µM,0.175
same,viability,[2]; 2 µM,0.122
same,viability,[2]; 10 µM,0.108
same,viability,[3]; 0.032 µM,1.11
same,viability,[3]; 0.16 µM,0.958
same,viability,[3]; 0.8 µM,1
same,viability,[3]; 4 µM,1.07
same,viability,[3]; 20 µM,0.698
same,viability,[4]; 0.024 µM,1.03
same,viability,[4]; 0.12 µM,0.957
same,viability,[4]; 0.6 µM,0.887
same,viability,[4]; 3 µM,0.567
same,viability,[4]; 15 µM,0.291
same,viability,[5]; 0.008 µM,0.945
same,viability,[5]; 0.04 µM,0.95
same,viability,[5]; 0.2 µM,0.811
same,viability,[5]; 1 µM,0.333
same,viability,[5]; 5 µM,0.363
same,viability,[6]; 0.0032 µM,1.04
same,viability,[6]; 0.016 µM,0.983
same,viability,[6]; 0.08 µM,0.753
same,viability,[6]; 0.4 µM,0.392
same,viability,[6]; 2 µM,0.186
same,viability,[7]; 0.032 µM,1.08
same,viability,[7]; 0.16 µM,1.02
same,viability,[7]; 0.8 µM,1.09
same,viability,[7]; 4 µM,0.93
same,viability,[7]; 20 µM,0.649
same,viability,[8]; 0.024 µM,0.995
same,viability,[8]; 0.12 µM,0.948
same,viability,[8]; 0.6 µM,0.892
same,viability,[8]; 3 µM,0.998
same,viability,[8]; 15 µM,0.952
same,viability,[9]; 0.008 µM,0.965
same,viability,[9]; 0.04 µM,0.985
same,viability,[9]; 0.2 µM,0.989
same,viability,[9]; 1 µM,0.931
same,viability,[9]; 5 µM,0.858
same,viability,[10]; 0.0032 µM,1.02
same,viability,[10]; 0.016 µM,0.958
same,viability,[10]; 0.08 µM,0.959
same,viability,[10]; 0.4 µM,0.921
same,viability,[10]; 2 µM,0.958
same,viability,[11]; 0.024 µM,0.863
same,viability,[11]; 0.12 µM,0.924
same,viability,[11]; 0.6 µM,0.912
same,viability,[11]; 3 µM,0.901
same,viability,[11]; 15 µM,0.903
same,viability,[12]; 0.0016 µM,0.73
same,viability,[12]; 0.008 µM,0.662
same,viability,[12]; 0.04 µM,0.665
same,viability,[12]; 0.2 µM,0.619
same,viability,[12]; 1 µM,0.526
same,viability,[13]; 0.016 µM,1.1
same,viability,[13]; 0.08 µM,1.11
same,viability,[13]; 0.4 µM,1.01
same,viability,[13]; 2 µM,1.04
same,viability,[13]; 10 µM,0.885
primary MCL patient cells (S068),viability,[1]; 0.024 µM,0.917
same,viability,[1]; 0.12 µM,0.852
same,viability,[1]; 0.6 µM,0.72
same,viability,[1]; 3 µM,0.859
same,viability,[1]; 15 µM,0.843
same,viability,[2]; 0.016 µM,0.511
same,viability,[2]; 0.08 µM,0.439
same,viability,[2]; 0.4 µM,0.43
same,viability,[2]; 2 µM,0.322
same,viability,[2]; 10 µM,0.269
same,viability,[3]; 0.032 µM,1.03
same,viability,[3]; 0.16 µM,0.956
same,viability,[3]; 0.8 µM,0.952
same,viability,[3]; 4 µM,0.933
same,viability,[3]; 20 µM,0.624
same,viability,[4]; 0.024 µM,0.913
same,viability,[4]; 0.12 µM,0.842
same,viability,[4]; 0.6 µM,0.547
same,viability,[4]; 3 µM,0.367
same,viability,[4]; 15 µM,0.262
same,viability,[5]; 0.008 µM,0.862
same,viability,[5]; 0.04 µM,0.947
same,viability,[5]; 0.2 µM,1.31
same,viability,[5]; 1 µM,1.01
same,viability,[5]; 5 µM,1.12
same,viability,[6]; 0.0032 µM,1.04
same,viability,[6]; 0.016 µM,0.906
same,viability,[6]; 0.08 µM,0.642
same,viability,[6]; 0.4 µM,0.326
same,viability,[6]; 2 µM,0.191
same,viability,[7]; 0.032 µM,0.834
same,viability,[7]; 0.16 µM,0.913
same,viability,[7]; 0.8 µM,0.772
same,viability,[7]; 4 µM,0.717
same,viability,[7]; 20 µM,0.351
same,viability,[8]; 0.024 µM,0.935
same,viability,[8]; 0.12 µM,0.92
same,viability,[8]; 0.6 µM,0.872
same,viability,[8]; 3 µM,0.836
same,viability,[8]; 15 µM,0.888
same,viability,[9]; 0.008 µM,0.882
same,viability,[9]; 0.04 µM,0.828
same,viability,[9]; 0.2 µM,0.768
same,viability,[9]; 1 µM,0.7
same,viability,[9]; 5 µM,0.665
same,viability,[10]; 0.0032 µM,0.66
same,viability,[10]; 0.016 µM,0.642
same,viability,[10]; 0.08 µM,0.643
same,viability,[10]; 0.4 µM,0.657
same,viability,[10]; 2 µM,0.685
same,viability,[11]; 0.024 µM,0.624
same,viability,[11]; 0.12 µM,0.721
same,viability,[11]; 0.6 µM,0.737
same,viability,[11]; 3 µM,0.806
same,viability,[11]; 15 µM,0.791
same,viability,[12]; 0.0016 µM,0.69
same,viability,[12]; 0.008 µM,0.635
same,viability,[12]; 0.04 µM,0.572
same,viability,[12]; 0.2 µM,0.585
same,viability,[12]; 1 µM,0.493
same,viability,[13]; 0.016 µM,1.29
same,viability,[13]; 0.08 µM,1.33
same,viability,[13]; 0.4 µM,1.24
same,viability,[13]; 2 µM,1.33
same,viability,[13]; 10 µM,1.3
primary T-PLL patient cells (S008),viability,[1]; 0.024 µM,0.96
same,viability,[1]; 0.12 µM,1.03
same,viability,[1]; 0.6 µM,1.04
same,viability,[1]; 3 µM,0.96
same,viability,[1]; 15 µM,0.983
same,viability,[2]; 0.016 µM,0.631
same,viability,[2]; 0.08 µM,0.332
same,viability,[2]; 0.4 µM,0.276
same,viability,[2]; 2 µM,0.22
same,viability,[2]; 10 µM,0.118
same,viability,[3]; 0.032 µM,1.01
same,viability,[3]; 0.16 µM,1.09
same,viability,[3]; 0.8 µM,1.03
same,viability,[3]; 4 µM,1.03
same,viability,[3]; 20 µM,0.945
same,viability,[4]; 0.024 µM,1.05
same,viability,[4]; 0.12 µM,1.02
same,viability,[4]; 0.6 µM,1.02
same,viability,[4]; 3 µM,1.01
same,viability,[4]; 15 µM,0.778
same,viability,[5]; 0.008 µM,1.03
same,viability,[5]; 0.04 µM,0.983
same,viability,[5]; 0.2 µM,0.879
same,viability,[5]; 1 µM,0.693
same,viability,[5]; 5 µM,0.58
same,viability,[6]; 0.0032 µM,1.01
same,viability,[6]; 0.016 µM,1.04
same,viability,[6]; 0.08 µM,0.648
same,viability,[6]; 0.4 µM,0.115
same,viability,[6]; 2 µM,0.0601
same,viability,[7]; 0.032 µM,0.978
same,viability,[7]; 0.16 µM,1.06
same,viability,[7]; 0.8 µM,0.972
same,viability,[7]; 4 µM,1.05
same,viability,[7]; 20 µM,0.949
same,viability,[8]; 0.024 µM,1.01
same,viability,[8]; 0.12 µM,1.06
same,viability,[8]; 0.6 µM,0.955
same,viability,[8]; 3 µM,0.995
same,viability,[8]; 15 µM,1.04
same,viability,[9]; 0.008 µM,1.03
same,viability,[9]; 0.04 µM,1.03
same,viability,[9]; 0.2 µM,1.04
same,viability,[9]; 1 µM,1.06
same,viability,[9]; 5 µM,0.938
same,viability,[10]; 0.0032 µM,1.03
same,viability,[10]; 0.016 µM,0.954
same,viability,[10]; 0.08 µM,1.01
same,viability,[10]; 0.4 µM,1
same,viability,[10]; 2 µM,1.04
same,viability,[11]; 0.024 µM,0.995
same,viability,[11]; 0.12 µM,0.946
same,viability,[11]; 0.6 µM,1.12
same,viability,[11]; 3 µM,0.984
same,viability,[11]; 15 µM,0.984
same,viability,[12]; 0.0016 µM,0.994
same,viability,[12]; 0.008 µM,0.976
same,viability,[12]; 0.04 µM,1.02
same,viability,[12]; 0.2 µM,0.985
same,viability,[12]; 1 µM,1.02
same,viability,[13]; 0.016 µM,1.04
same,viability,[13]; 0.08 µM,1.02
same,viability,[13]; 0.4 µM,0.977
same,viability,[13]; 2 µM,0.968
same,viability,[13]; 10 µM,0.928

# Source: the supplement of paper PMC10733146
